Key:
Ba/F3 BCR-FGFR1 = target: T1, Ba/F3 BCR-FGFR1 (Homo sapiens, UniProt P11362); test: Ba/F3 cell viability assay (CellTiter-Glo 2.0); format: cell-based; details: Ba/F3 cell data, BCR-FGFR1 fusion, 48 hours
T1 construct: BCR (fusion partner); host or cells: Ba/F3; the other entry of the earlier key: BCR (P11274, Breakpoint cluster region protein)

Ba/F3 BCR-FGFR2 = target: T2, Ba/F3 BCR-FGFR2 (Homo sapiens, UniProt P21802); test: Ba/F3 cell viability assay (CellTiter-Glo 2.0); format: cell-based; details: Ba/F3 cell data, BCR-FGFR2 fusion, 48 hours
T2 construct: BCR (fusion partner); host or cells: Ba/F3; the other entry of the earlier key: BCR (P11274, Breakpoint cluster region protein)
T2 sequence (P21802 481-770 limits assumed): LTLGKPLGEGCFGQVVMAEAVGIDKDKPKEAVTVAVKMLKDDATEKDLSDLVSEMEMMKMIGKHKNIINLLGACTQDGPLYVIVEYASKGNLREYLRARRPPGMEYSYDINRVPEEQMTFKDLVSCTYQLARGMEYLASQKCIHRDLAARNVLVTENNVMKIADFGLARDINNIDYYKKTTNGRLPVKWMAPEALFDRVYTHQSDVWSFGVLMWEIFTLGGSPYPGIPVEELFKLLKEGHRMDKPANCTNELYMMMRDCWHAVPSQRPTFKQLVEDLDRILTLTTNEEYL

KatoIIII = test: Cancer cell line cell viability assay (CellTiter-Glo 2.0); format: cell-based; details: 72 hours
Ba/F3 FGFR3-BAIAP2L1 = target: T3, Ba/F3 FGFR3-BAIAP2L1 (Homo sapiens, UniProt P22607); test: Ba/F3 cell viability assay (CellTiter-Glo 2.0); format: cell-based; details: Ba/F3 cell data, FGFR3-BAIAP2L1 fusion, 48 hours
T3 construct: BAIAP2L1 (fusion partner, Q9UHR4 if human); host or cells: Ba/F3; the other entry of the earlier key: BAIAP2L1 (Q9UHR4, BAR/IMD domain-containing adapter protein 2-like 1)
T3 sequence (P22607 397-758 limits assumed): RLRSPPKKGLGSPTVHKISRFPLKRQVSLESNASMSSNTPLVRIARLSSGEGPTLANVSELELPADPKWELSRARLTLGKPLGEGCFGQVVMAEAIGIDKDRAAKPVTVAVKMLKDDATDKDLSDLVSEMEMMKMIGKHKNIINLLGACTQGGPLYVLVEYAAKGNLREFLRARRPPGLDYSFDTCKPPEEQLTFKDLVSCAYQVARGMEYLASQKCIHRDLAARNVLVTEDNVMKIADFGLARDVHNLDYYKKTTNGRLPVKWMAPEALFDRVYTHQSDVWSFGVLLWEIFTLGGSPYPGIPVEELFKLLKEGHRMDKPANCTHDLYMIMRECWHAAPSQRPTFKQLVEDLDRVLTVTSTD

RT112/84 = test: Cancer cell line cell viability assay (CellTiter-Glo 2.0); format: cell-based; details: Homo sapiens; RT112/84 (FGFR3-fusion) cell viability, 72 hours
Excerpt: (§1) Experimental Purpose: To detect the change of intracellular ATP by Cell Titer-Glo® and to evaluate the inhibitory effect of the compounds on cancer cell lines by determining the in vitro IC50 value of the compounds.
(§2) Cell Titer-Glo® 2.0 Luminescent cell viability assay reagent was purchased from Promega (Madison, WI). RT112/84 and KG-1 cell lines were purchased from American Type Culture Collection (Manassas, VA). UM-UC-14 cell line was purchased from Sigma (St. Louis, MO). RT112/84, UM-UC-14, and KG-1 cells were cultured in RPMI1640 media supplemented with 10% fetal bovine serum. Cultures were maintained at 37° C. in a humidified atmosphere of 5% CO2 and 95% air.
(§3) Cell Viability Assay Procedure: Cells were plated in 96-well clear bottom/white plates (Corning #3903) at 10,000 cells/well in 100 μl of media, incubated overnight. The next day, test compound DMSO stock solutions were made at 10 mM and 2 μM final concentration.
(§4) Compounds were then added to cells in a 9-dose, […] dilution series starting at 30 μM with an HP 300e Digital Dispenser (each dose was applied in triplicate). DMSO was backfilled to each well up to 301 nL total volume of test compound+DMSO, and a total of 301 nL DMSO was added to a control/no test compound well in triplicate. The cells in cell culture plates were incubated with the compounds at 37° C. and 5% CO2 for 72 hours. Then 50 μl of Cell Titer Glo 2.0 reagent was added to each well of the cell culture plates. The contents were covered from light and mixed on an orbital shaker at room temperature for 10 min.
(§5) Luminescence was recorded by a Synergy H1 Microplate Reader (Biotek, Winooski, VT). Cells were assessed as a percentage of DMSO only treated control cells. Curves were plotted and IC50 values were calculated using the GraphPad Prism 8 program based on a sigmoidal dose-response equation (4 parameter).

KG-1 = test: as above; format: cell-based; details: Homo sapiens; KG-1 (FGFR1-fusion) cell viability, 72 hours
Excerpt: as §1, §2, §3, §4, §5

FGFR3 = target: T4, FGFR3 (Homo sapiens, UniProt P22607); test: Kinase binding assay (Kd), kinase-tagged T7 phage, affinity beads, qPCR; details: in vitro binding assay, 11-point 3-fold dilution series
T4 construct: made in house; host or cells: E. coli (BL21-derived) infected with T7 phage
T4 sequence (P22607 23-806): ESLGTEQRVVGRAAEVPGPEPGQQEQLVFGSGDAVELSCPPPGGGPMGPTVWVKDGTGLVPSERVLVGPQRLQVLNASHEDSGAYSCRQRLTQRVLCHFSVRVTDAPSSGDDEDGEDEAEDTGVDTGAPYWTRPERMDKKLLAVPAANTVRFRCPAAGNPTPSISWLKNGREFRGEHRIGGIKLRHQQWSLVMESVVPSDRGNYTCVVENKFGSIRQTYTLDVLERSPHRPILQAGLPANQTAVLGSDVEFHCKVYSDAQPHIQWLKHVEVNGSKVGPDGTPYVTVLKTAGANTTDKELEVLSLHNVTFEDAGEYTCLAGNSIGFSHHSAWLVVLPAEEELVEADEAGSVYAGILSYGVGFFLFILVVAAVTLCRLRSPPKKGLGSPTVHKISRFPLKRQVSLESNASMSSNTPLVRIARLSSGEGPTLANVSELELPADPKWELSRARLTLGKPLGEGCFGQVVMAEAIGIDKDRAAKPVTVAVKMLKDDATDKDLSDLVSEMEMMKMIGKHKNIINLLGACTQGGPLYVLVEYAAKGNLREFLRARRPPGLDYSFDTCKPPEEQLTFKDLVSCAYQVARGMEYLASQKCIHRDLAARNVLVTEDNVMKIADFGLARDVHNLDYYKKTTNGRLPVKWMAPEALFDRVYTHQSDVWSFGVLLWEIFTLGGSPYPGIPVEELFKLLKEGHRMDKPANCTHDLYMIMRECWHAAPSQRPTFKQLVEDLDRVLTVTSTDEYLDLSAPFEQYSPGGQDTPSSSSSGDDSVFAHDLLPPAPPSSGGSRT
Protocol: (§6) Kinase-tagged T7 phage strains were prepared in an E. coli host derived from the BL21 strain. E. coli were grown to log-phase and infected with T7 phage and incubated with shaking at 32° C. until lysis. The lysates were centrifuged and filtered to remove cell debris. Streptavidin-coated magnetic beads were treated with biotinylated small molecule ligands for 30 minutes at room temperature to generate affinity resins for kinase assays. The liganded beads were blocked with excess biotin and washed with blocking buffer SeaBlock (Pierce), 1% BSA, 0.05% Tween 20, 1 mM DTT to remove unbound ligand and to reduce non-specific binding. Binding reactions were assembled by combining kinases, liganded affinity beads, and test compounds in 1× binding buffer (20% SeaBlock, 0.17×PBS, 0.05% Tween 20, 6 mM DTT).
(§7) Test compounds were prepared as 111× stocks in 100% DMSO. Kds were determined using an 11-point 3-fold compound dilution series with three DMSO control points. All compounds for Kd measurements are distributed by acoustic transfer (non-contact dispensing) in 100% DMSO. The compounds were then diluted directly into the assays such that the final concentration of DMSO was 0.9%. All reactions performed in polypropylene 384-well plate. Each was a final volume of 0.02 ml. The assay plates were incubated at room temperature with shaking for 1 hour and the affinity beads were washed with wash buffer (1×PBS, 0.05% Tween 20). The beads were then re-suspended in elution buffer (1×PBS, 0.05% Tween 20, 0.5 μM non-biotinylated affinity ligand) and incubated at room temperature with shaking for 30 minutes. The kinase concentration in the eluates was measured by qPCR.
(§8) Binding constants were calculated with a standard dose-response curve using the Hill equation: […]
(§9) The Hill Slope was set to −1. Curves were fitted using a non-linear least square fit with the Levenberg-Marquardt algorithm.

FGFR2 = target: T5, FGFR2 (Homo sapiens, UniProt P21802); test: as above; details: in vitro binding assay, 11-point 3-fold dilution series
T5 construct: made in house; host or cells: E. coli (BL21-derived) infected with T7 phage
T5 sequence (P21802 22-821): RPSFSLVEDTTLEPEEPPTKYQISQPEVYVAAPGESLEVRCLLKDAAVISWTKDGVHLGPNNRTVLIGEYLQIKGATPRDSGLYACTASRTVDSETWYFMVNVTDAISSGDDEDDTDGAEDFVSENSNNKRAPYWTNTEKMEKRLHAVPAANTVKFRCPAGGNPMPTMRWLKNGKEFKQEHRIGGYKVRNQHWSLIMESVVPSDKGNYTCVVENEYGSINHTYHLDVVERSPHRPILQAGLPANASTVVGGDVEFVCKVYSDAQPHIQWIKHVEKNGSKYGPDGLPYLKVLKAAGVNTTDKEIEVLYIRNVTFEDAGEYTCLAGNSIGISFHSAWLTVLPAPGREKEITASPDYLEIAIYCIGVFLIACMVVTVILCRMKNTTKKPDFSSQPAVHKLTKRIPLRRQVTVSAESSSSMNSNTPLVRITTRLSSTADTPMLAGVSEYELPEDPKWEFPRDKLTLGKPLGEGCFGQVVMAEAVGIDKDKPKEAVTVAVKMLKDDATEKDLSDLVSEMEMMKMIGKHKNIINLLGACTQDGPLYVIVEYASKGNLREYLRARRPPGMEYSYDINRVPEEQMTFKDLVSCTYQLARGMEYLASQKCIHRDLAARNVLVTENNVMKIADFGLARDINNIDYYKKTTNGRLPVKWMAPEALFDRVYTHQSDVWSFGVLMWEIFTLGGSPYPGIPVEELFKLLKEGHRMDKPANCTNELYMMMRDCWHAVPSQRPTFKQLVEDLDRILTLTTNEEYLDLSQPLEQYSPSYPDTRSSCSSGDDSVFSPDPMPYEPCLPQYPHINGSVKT
Protocol: as §6, §7, §8, §9

FGFR3 (V555M) = target: T6, FGFR3 (V555M) (Homo sapiens, UniProt P22607, V555M); test: as above; details: in vitro binding assay, 11-point 3-fold dilution series
T6 construct: made in house; host or cells: E. coli (BL21-derived) infected with T7 phage
T6 sequence (P22607 23-806 V555M): as the sequence (P22607 23-806) above, with V533M counted along it
Protocol: as §6, §7, §8, §9

FGFR1 = target: T7, FGFR1 (Homo sapiens, UniProt P11362); test: as above; details: in vitro binding assay, 11-point 3-fold dilution series
T7 construct: made in house; host or cells: E. coli (BL21-derived) infected with T7 phage
T7 sequence (P11362 22-822): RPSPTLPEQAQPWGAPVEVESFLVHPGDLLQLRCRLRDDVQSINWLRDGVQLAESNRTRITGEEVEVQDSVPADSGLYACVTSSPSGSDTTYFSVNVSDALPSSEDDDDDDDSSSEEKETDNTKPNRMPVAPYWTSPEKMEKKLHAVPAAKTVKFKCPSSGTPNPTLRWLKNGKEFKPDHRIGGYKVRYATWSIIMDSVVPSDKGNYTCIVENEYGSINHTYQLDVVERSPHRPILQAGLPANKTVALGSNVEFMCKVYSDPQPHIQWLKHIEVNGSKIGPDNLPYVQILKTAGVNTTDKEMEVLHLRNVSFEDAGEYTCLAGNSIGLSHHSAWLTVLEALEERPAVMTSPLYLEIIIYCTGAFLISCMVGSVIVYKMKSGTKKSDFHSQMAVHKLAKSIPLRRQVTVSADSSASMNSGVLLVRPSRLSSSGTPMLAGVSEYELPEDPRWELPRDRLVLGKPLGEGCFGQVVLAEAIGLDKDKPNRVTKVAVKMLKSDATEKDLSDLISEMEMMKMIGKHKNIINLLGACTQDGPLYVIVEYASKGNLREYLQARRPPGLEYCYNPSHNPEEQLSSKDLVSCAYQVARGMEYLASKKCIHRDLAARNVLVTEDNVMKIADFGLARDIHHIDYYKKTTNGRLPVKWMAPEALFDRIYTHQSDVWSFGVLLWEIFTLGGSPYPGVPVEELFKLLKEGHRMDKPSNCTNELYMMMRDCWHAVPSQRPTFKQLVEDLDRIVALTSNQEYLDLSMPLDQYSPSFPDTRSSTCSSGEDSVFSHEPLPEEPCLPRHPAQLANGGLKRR
Protocol: as §6, §7, §8, §9

FGFR4 = target: T8, FGFR4 (Homo sapiens, UniProt P22455); test: as above; details: in vitro binding assay, 11-point 3-fold dilution series
T8 construct: made in house; host or cells: E. coli (BL21-derived) infected with T7 phage
T8 sequence (P22455 22-802): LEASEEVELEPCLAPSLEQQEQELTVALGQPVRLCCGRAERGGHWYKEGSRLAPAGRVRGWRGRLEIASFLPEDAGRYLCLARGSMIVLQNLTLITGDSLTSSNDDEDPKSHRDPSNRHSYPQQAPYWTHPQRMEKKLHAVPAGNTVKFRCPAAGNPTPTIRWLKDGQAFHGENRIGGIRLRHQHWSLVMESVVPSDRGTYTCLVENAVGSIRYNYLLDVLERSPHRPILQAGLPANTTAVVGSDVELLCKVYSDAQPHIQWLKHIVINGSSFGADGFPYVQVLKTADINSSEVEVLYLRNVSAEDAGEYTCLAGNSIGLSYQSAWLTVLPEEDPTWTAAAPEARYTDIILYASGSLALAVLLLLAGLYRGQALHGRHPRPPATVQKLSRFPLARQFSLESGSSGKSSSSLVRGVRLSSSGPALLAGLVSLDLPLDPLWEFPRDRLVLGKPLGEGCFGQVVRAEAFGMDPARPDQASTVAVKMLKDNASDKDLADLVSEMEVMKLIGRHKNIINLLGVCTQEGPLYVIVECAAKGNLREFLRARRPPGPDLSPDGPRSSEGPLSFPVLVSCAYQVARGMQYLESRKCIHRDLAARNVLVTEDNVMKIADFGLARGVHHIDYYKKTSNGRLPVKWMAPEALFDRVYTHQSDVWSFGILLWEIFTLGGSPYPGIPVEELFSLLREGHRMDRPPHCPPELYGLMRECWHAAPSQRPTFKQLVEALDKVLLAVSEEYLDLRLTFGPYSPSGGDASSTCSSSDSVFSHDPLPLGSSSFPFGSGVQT
Protocol: as §6, §7, §8, §9

Ba/F3 ETV5-FGFR4 = target: T9, Ba/F3 ETV5-FGFR4 (Homo sapiens, UniProt P22455); test: Ba/F3 cell viability assay (CellTiter-Glo 2.0); format: cell-based; details: Ba/F3 cell data, ETV5-FGFR4 fusion, 48 hours
T9 construct: host or cells: Ba/F3; the other entry of the earlier key: ETV5 (P41161, ETS translocation variant 5)
T9 sequence (P22455 467-755 limits assumed): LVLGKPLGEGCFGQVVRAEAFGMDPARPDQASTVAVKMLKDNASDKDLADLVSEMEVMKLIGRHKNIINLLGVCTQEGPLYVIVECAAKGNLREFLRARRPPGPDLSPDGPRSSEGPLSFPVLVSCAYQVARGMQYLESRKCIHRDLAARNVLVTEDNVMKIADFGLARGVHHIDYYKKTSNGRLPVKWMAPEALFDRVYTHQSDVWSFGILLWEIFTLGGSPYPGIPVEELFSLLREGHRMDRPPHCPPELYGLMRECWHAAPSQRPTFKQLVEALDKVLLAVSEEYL
Excerpt: Experimental Purpose: Recombinant kinase fusions are transduced into parental Ba/F3, which becomes dependent upon this constitutive kinase activity for IL3-independent survival. Inhibition of kinase activity leads to cell death, which is monitored using CellTiter-Glo® 2.0 (Promega) which measures intracellular ATP concentration that in turn serves as a marker for viability. BCR-FGFR1 Ba/F3, BCR-FGFR2 and FGFR3-BAIAP2L1 Ba/F3 were obtained from Advanced Cellular Dynamics (Seattle, WA). ETV6-FGFR4 was obtained from Kyinno (Waltham, MA).
Cell Viability Assay Procedure: Cell Titer-Glo® 2.0 Luminescent cell viability assay reagent was purchased from Promega (Madison, WI). Ba/F3 cell lines were cultured in RPMI1640 media supplemented with 10% fetal bovine serum. Cultures were maintained at 37° C. in a humidified atmosphere of 5% CO2 and 95% air.
Cells were plated in 96-well clear bottom/white plates (Corning #3903) at 10,000 cells/well in 100 μl of media, incubated overnight. The next day, test compound DMSO stock solutions were made at 10 mM and 2 μM final concentration. Compounds were then added to cells in a 9-dose, 10-fold dilution series starting at 30 μM with an HP 300e Digital Dispenser (each dose was applied in triplicate). DMSO was backfilled to each well up to 301 nL total volume of test compound+DMSO, and a total of 301 nL DMSO was added to a control/no test compound well in triplicate. The cells in cell culture plates were incubated with the compounds at 37° C. and 5% CO2 for 48 hours. Then 50 μl of Cell Titer Glo 2.0 reagent was added to each well of the cell culture plates. The contents were covered from light and mixed on an orbital shaker at room temperature for 10 min. Luminescence was recorded by a Synergy H1 Microplate Reader (Biotek, Winooski, VT). Cells were assessed as a percentage of DMSO only treated control cells. Curves were plotted and IC50 values were calculated using the GraphPad Prism 8 program based on a sigmoidal dose-response equation (4 parameter).

T1 sequence (P11362 478-767 limits assumed): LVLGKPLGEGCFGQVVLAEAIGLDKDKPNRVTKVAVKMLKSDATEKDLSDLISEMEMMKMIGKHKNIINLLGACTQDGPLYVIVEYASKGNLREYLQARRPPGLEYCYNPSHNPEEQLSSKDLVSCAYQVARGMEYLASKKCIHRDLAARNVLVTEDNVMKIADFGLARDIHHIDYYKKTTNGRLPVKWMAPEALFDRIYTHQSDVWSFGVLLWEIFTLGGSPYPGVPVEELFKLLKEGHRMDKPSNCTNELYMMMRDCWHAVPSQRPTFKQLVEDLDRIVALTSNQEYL

Structure (SMILES)	IC50 (KatoIIII)	IC50 (RT112/84)	IC50 (KG-1)	Kd (FGFR3)	Kd (FGFR2)	Kd (FGFR3 (V555M))	Kd (FGFR1)	Kd (FGFR4)	Kd (Ba/F3 BCR-FGFR1)	Kd (Ba/F3 BCR-FGFR2)	Kd (Ba/F3 FGFR3-BAIAP2L1)	Kd (Ba/F3 ETV5-FGFR4)
C=CC(=O)N1CCC(n2ncc(-c3cc(O[C@@H](CO)c4ccc(F)cn4)c4c(C#N)cnn4c3)c2C)CC1 [Example 2, 4-[(1R)-1-(5-fluoro-2-pyridyl)-2-hydroxy-ethoxy]-6-[5-methyl-1-(1-prop-2-enoyl-4-piperidyl)pyrazol-4-yl]pyrazolo[1,5-a]pyridine-3-carbonitrile]	250 to 1000 nM	≥ 1000 nM	≥ 1000 nM	250 to 1000 nM	250 to 1000 nM	250 to 1000 nM	250 to 1000 nM	≥ 1000 nM	≥ 1000 nM	≥ 1000 nM	250 to 1000 nM	≥ 1000 nM
C=CC(=O)N1CCC2(CC1)CC(n1ncc(-c3cc(O[C@H](CO)c4ccccn4)c4c(C#N)cnn4c3)c1C)C2 [Example 8, (S)-6-(1-(7-acryloyl-7-azaspiro[3.5]nonan-2-yl)-5-methyl-1H-pyrazol-4-yl)-4-(2-hydroxy-1-(pyridin-2-yl)ethoxy)pyrazolo[1,5-a]pyridine-3-carbonitrile]	100 to 250 nM	100 to 250 nM	100 to 250 nM	0.1 to 100 nM	0.1 to 100 nM	0.1 to 100 nM	0.1 to 100 nM	0.1 to 100 nM	100 to 250 nM	100 to 250 nM	0.1 to 100 nM	250 to 1000 nM
C=CC(=O)N1CCC2(CC1)CC(n1ncc(-c3cc(O[C@H](CO)c4ccc(F)cn4)c4c(C#N)cnn4c3)c1C)C2 [Example 9, (S)-6-(1-(7-acryloyl-7-azaspiro[3.5]nonan-2-yl)-5-methyl-1H-pyrazol-4-yl)-4-(1-(5-fluoropyridin-2-yl)-2-hydroxyethoxy)pyrazolo[1,5-a]pyridine-3-carbonitrile]	250 to 1000 nM	250 to 1000 nM	≥ 1000 nM	0.1 to 100 nM	0.1 to 100 nM	0.1 to 100 nM	0.1 to 100 nM	0.1 to 100 nM	250 to 1000 nM	100 to 250 nM	0.1 to 100 nM	250 to 1000 nM
C=CC(=O)N1CCC2(CC1)CC(n1nnc(-c3cc(O[C@H](CO)c4ccc(F)cn4)c4c(C#N)cnn4c3)c1C)C2 [Example 13, (S)-6-(1-(7-acryloyl-7-azaspiro[3.5]nonan-2-yl)-5-methyl-1H-1,2,3-triazol-4-yl)-4-(1-(5-fluoropyridin-2-yl)-2-hydroxyethoxy)pyrazolo[1,5-a]pyridine-3-carbonitrile]	100 to 250 nM	100 to 250 nM	0.1 to 100 nM	0.1 to 100 nM	0.1 to 100 nM	0.1 to 100 nM	0.1 to 100 nM	0.1 to 100 nM	250 to 1000 nM	100 to 250 nM	0.1 to 100 nM	250 to 1000 nM
C=CC(=O)N1CCC2(CC1)CC(n1ncc(-c3cc(OC(CO)c4ccn(C)n4)c4c(C#N)cnn4c3)c1C)C2 (stereo not drawn) [Example 14, 6-(1-(7-acryloyl-7-azaspiro[3.5]nonan-2-yl)-5-methyl-1H-pyrazol-4-yl)-4-(2-hydroxy-1-(1-methyl-1H-pyrazol-3-yl)ethoxy)pyrazolo[1,5-a]pyridine-3-carbonitrile]	250 to 1000 nM	250 to 1000 nM	250 to 1000 nM	0.1 to 100 nM	0.1 to 100 nM	100 to 250 nM	100 to 250 nM	100 to 250 nM	250 to 1000 nM	250 to 1000 nM	0.1 to 100 nM	250 to 1000 nM

More lines, main results first:

IC50 (KatoIIII)	IC50 (RT112/84)	IC50 (KG-1)	Kd (FGFR3)	Kd (FGFR2)	Kd (FGFR3 (V555M))	Kd (FGFR1)	Kd (FGFR4)	Structure (SMILES)	Kd (Ba/F3 BCR-FGFR1)	Kd (Ba/F3 BCR-FGFR2)	Kd (Ba/F3 FGFR3-BAIAP2L1)	Kd (Ba/F3 ETV5-FGFR4)
100 to 250 nM	100 to 250 nM	≥ 1000 nM	0.1 to 100 nM	0.1 to 100 nM	0.1 to 100 nM	100 to 250 nM	100 to 250 nM	C=CC(=O)N1CCC(n2ncc(-c3cc(O[C@H](CO)c4ccc(F)cn4)c4c(C#N)cnn4c3)c2C)CC1 [Example 1, 4-[(1S)-1-(5-fluoro-2-pyridyl)-2-hydroxy-ethoxy]-6-[5-methyl-1-(1-prop-2-enoyl-4-piperidyl)pyrazol-4-yl]pyrazolo[1,5-a]pyridine-3-carbonitrile]	250 to 1000 nM	100 to 250 nM	0.1 to 100 nM	250 to 1000 nM
≥ 1000 nM	≥ 1000 nM	≥ 1000 nM	0.1 to 100 nM	0.1 to 100 nM	0.1 to 100 nM	0.1 to 100 nM	0.1 to 100 nM	C=CC(=O)N1CC(OC)(C(=O)N2CCC(n3nnc(-c4cc(O[C@H](CO)c5ccccn5)c5c(C#N)cnn5c4)c3C)CC2)C1 [Example 22, (S)-6-(1-(1-(1-acryloyl-3-methoxyazetidine-3-carbonyl)piperidin-4-yl)-5-methyl-1H-1,2,3-triazol-4-yl)-4-(2-hydroxy-1-(pyridin-2-yl)ethoxy)pyrazolo[1,5-a]pyridine-3-carbonitrile]	≥ 1000 nM	≥ 1000 nM	0.1 to 100 nM	≥ 1000 nM

From patent publication US20260209223A1, “FGFR3 INHIBITOR COMPOUNDS” (TYRA BIOSCIENCES, INC., priority 2022, published 2026)
